From US20140080847A1, “Compositions and Methods for Affecting Energy Balance, Body Composition, Fitness, and Well-Being” (OEJM Products Holdings, LLC, priority 2012, published 2014)

Tests used:
[1] = tested on: New Zealand white rabbits; experiment: Acute toxicity and tolerance (MTD) of a single oral dose in New Zealand white rabbits; type: in vivo, rabbit
Protocol: (§1) The maximum tolerated dose (MTD) of orally administered 1,3-DMPA and 1,4-DMPA was determined in New Zealand white rabbits and Wistar rats.
(§2) Determination of MTD of orally-administered 1,3-DMPA in New Zealand white rabbits: Twenty-four rabbits (twelve male, twelve female) were quarantined for at least seven days and then were randomly divided into four groups with six animals (3 male and 3 female) in each group. […] Animals were observed daily for fourteen days following administration. Each animal's body weight, food intake, mortality, and natural orifices were monitored. Clinical observations included skin condition, gait, movement, neurological disorders, eye condition, feces, convulsions, tremors, activity rate, restlessness, grooming, sleep, aggressiveness, salivation, diarrhea, respiration, appetite, thirst and urine conditions. Other observations included fur condition, mucous membranes, presence or absence of secretions and excretions and autonomic activity, lacrimation, piloerection, pupil size, posture, arched back, distended abdomen, fur, mucous membrane, presence or absence of secretions, tail elevation, motor activity, urination and defecation, and response to handling as well as the presence of clonic or tonic movements, repetitive circling, bizarre behavior, self-mutilation and walking backwards. At the conclusion of the fourteen day monitoring period, gross pathological examination was carried out on all animals. Heart, lung, liver, kidneys, spleen, stomach, large intestine, small intestine, brain and skin were examined for any macroscopic lesions.
(§3) Determination of MTD of orally-administered 1,4-DMPA in New Zealand white rabbits: Thirty rabbits (fifteen male, fifteen female) were quarantined for at least seven days and then were randomly divided into five groups with six animals (3 male and 3 female) in each group. […] Animals were observed daily for fourteen days following administration. Each animal's body weight, food intake, mortality, and natural orifices were monitored. As above, clinical observations included observation of natural orifices for any abnormal secretions and monitoring for the presence or absence of secretions and excretions, monitoring of mucous membranes, fur and skin condition, mortality, gait, posture, arched back, distended abdomen, movement and motor activity, neurological disorders, eye condition and pupil size, feces, convulsions, tremors, tail elevation, activity rate, restlessness, grooming, sleep, aggressiveness, salivation, diarrhea, respiration, appetite, thirst and urine conditions, autonomic activity, lacrimation, piloerection, response to handling, as well as the presence of clonic or tonic movements, repetitive circling, bizarre behavior, self-mutilation and walking backwards. At the conclusion of the fourteen day monitoring period, gross pathological examination was carried out on all animals. Heart, lung, liver, kidneys, spleen, stomach, large intestine, small intestine, brain and skin were examined for any macroscopic lesions.

[2] = as above; type: in vivo, rabbit; conditions: both sexes, New Zealand white, in vivo; rabbit, single oral dose
Protocol: as §1, §2, §3

[3] = tested on: human(s); experiment: Comparative effects of 1,3-DMPA and 1,4-DMPA compounds in humans (self-administration); type: in vivo
Protocol: The compounds 1,3-DMPA, racemic 1,4-DMPA, (R)-1,4-DMPA, and (S)-1,4-DMPA were administered to human(s). A non-smoking person of normal weight ingested 40 mg 1,3-DMPA as part of a dietary supplement (dietary ingredients: arginine α-ketoglutarate, creatine monohydrate, β-alanine, caffeine, 1,3-dimethylpentylamine HCL, schisandra cinensis (berry) extract (standardized for schizandrol A)); powder form), self-administered daily for at least seven days. […] To compare the effects of 1,3-DMPA to the effects of 1,4-DMPA, this individual later ingested 1,4-DMPA (racemic) for at least seven days at a dose of 60 mg per day, combined with 250 mg caffeine.
To compare the effects of (R)-1,4-DMPA, and (S)-1,4-DMPA, the individual described above ingested each enantiomer separately. Starting dose was ˜20 mg per day, which was increased to 30 mg per day if treatment was continued. Doses were combined with 250 mg caffeine as described above. […] The dose was increased to 30 mg per day; the total duration of treatment was at least three weeks. […] Ingestion of (S)-1,4-DMPA (25-30 mg per day) with caffeine produced different effects. […] The individual ceased self-administering (S)-1,4-DMPA after several days of experiencing the latter effects.

[4] = tested on: cats and dogs; conditions: early animal studies; cited from earlier work
[5] = tested on: Wistar rats; experiment: Acute toxicity and tolerance (MTD) of a single oral dose in Wistar rats; type: in vivo, rat
Protocol: as §1
(§4) Determination of MTD of orally-administered 1,3-DMPA in Wistar rats: The same general methods and procedures were followed as described above. This study involved forty animals randomly divided into four groups of ten animals (five male, five female) in each group. […] The MTD of a single oral dose of 1,3-DMPA was determined to be between 125 mg/kg and 250 mg/kg.
as §4, with “1,4-DMPA” for “1,3-DMPA”, “group. The groups were treated as follows: Group I (vehicle control—water), Group II (75 mg/kg), Group III (150 mg/kg), and Group IV (300 mg/kg). […] Gross pathological changes were not observed in the treated groups during necropsy.” for “group.”, “150” for “125”, “300 mg/kg in Wistar rats.” for “250 mg/kg.”

[6] = as above; type: in vivo, rat; conditions: both sexes, Wistar, in vivo; rat, single oral dose
Protocol: as §1, §4
as §4, with “1,4-DMPA” for “1,3-DMPA”, “group. The groups were treated as follows: Group I (vehicle control—water), Group II (75 mg/kg), Group III (150 mg/kg), and Group IV (300 mg/kg). […] Gross pathological changes were not observed in the treated groups during necropsy.” for “group.”, “150” for “125”, “300 mg/kg in Wistar rats.” for “250 mg/kg.”

[7] = tested on: humans; conditions: cited from earlier work
[8] = male, 60 mg per day with 250 mg caffeine, at least seven days
[9] = male, 20 then 30 mg per day with 250 mg caffeine, at least three weeks
[10] = male, starting dose 20 mg per day with 250 mg caffeine
[11] = male, 40 mg daily in a dietary supplement containing caffeine, at least seven days
[12] = male, 25-30 mg per day with caffeine, several days

SMILES: CC(C)CCC(C)N (racemic) [1,4-DMPA, 1,4-dimethylpentylamine]
- clinical signs ([1]; rabbit, 250 mg/kg and 350 mg/kg oral, all animals): tremors and tachycardia
- body weight ([1]; rabbit, 350 mg/kg oral (Group V), study period): variation in body weight
- gross pathology of the animal that died ([1]; rabbit, 350 mg/kg oral, died after 36 hours): dark reddish discoloration of the lung suggesting congestion, slight reddish discoloration of the trachea, and mild petechial hemorrhages in the liver
- mortality ([1]; rabbit, 350 mg/kg oral, six animals per group, within 36 hours): one mortality
- mortality ([1]; rabbit, 50, 125, 250 mg/kg oral): No mortalities
- mean body weight ([1]; rabbit, 50, 125, 250 mg/kg oral (all groups except Group V), 14 days, vs vehicle control): consistent increase
- mean food intake ([1]; rabbit, all treatment groups 50-350 mg/kg, first 48 hours post treatment, vs control): reduced
- gross pathological changes ([1]; rabbit, treated groups 50-350 mg/kg, except the animal that died): No gross pathological changes were observed
- toxicity and tolerance compared with 1,3-DMPA ([1]; single-dose rat and rabbit studies): less toxic and better tolerated than 1,3-DMPA
- MTD at 14 days [2]: 250 to 350 mg/kg
- appetite [3, 8]: decreased appetite
- effect on heart rate compared with prior 1,3-DMPA [3, 8]: reduced effect on heart rate
- jitteriness or anxiousness compared with prior 1,3-DMPA [3, 8]: noticeably reduced feelings of jitteriness or anxiousness
- level of CNS stimulation compared with 1,3-DMPA [3, 8]: about the same level of CNS stimulation
- mood and vigor [3, 8]: improved mood and vigor
- nature of the stimulatory effect [3, 8]: increased focus and alertness and reduced fatigue
- physical performance [3, 8]: improved physical performance
- fat mass ([3]; reports of individuals ingesting the compound): reduction in fat mass
- vasopressor activity [4]: possesses vasopressor activity
- additional clinical signs ([5]; rat, 150 mg/kg and 300 mg/kg oral): Tremors and convulsions
- examination of the animals that died ([5]; rat, 300 mg/kg oral, died 4.5 hours post dosing): right median lobe consolidation and red foci on lungs, mild reddish discoloration of adrenals and spleen, mild enlargement of the spleen and glandular mucosa of the stomach showing hyperemia
- mortality ([5]; rat, 300 mg/kg oral, ten animals per group, within 4.5 hours): Four mortalities
- mean body weight ([5]; rat, 75, 150, 300 mg/kg oral, study period, vs control): consistently increased
- mortality ([5]; rat, 75 and 150 mg/kg oral): No mortalities
- clinical signs ([5]; rat, all treated animals 75, 150, 300 mg/kg oral): piloerection, tail elevation, nasal discharge, tachycardia and hyperactivity
- gross pathological changes at necropsy ([5]; rat, treated groups 75-300 mg/kg oral): not observed
- feed consumption ([5]; rat, treatment groups 75, 150, 300 mg/kg oral, first 48 hours post administration): consume less feed
- LD50 at 14 days [6]: 465 mg/kg
- MTD at 14 days [6]: 150 to 300 mg/kg

SMILES: CC(C)CC[C@@H](C)N [(R)-1,4-DMPA, (R)-1,4-dimethylpentylamine]
- CNS stimulation [3, 9]: CNS stimulation, including feelings of alertness, focus, and reduced fatigue
- appetite [3, 9]: decreased appetite
- heart rate, jitteriness, nervousness, anxiety [3, 9]: not associated with a noticeable increase in heart rate, jitteriness, nervousness, or anxiety
- mood [3, 9]: improved mood
- physical performance [3, 9]: improved physical performance
- CNS stimulant effect [3, 10]: produced CNS stimulant effect
- jitteriness or pressor effect [3, 10]: little or no jitteriness or pressor effect

SMILES: CCC(C)CC(C)N (stereo not shown) [1,3-DMPA, 1,3-dimethylpentylamine, reference compound]
- gross pathological observations ([1]; rabbit, 50 mg/kg or 150 mg/kg oral): no changes
- behavioral observations ([1]; rabbit, 50 mg/kg oral): did not exhibit any behavioral aberrations
- clinical signs ([1]; rabbit, 150 mg/kg oral, a few animals, hours 1-6 after administration): tremors
- clinical signs ([1]; rabbit, 300 mg/kg oral): nasal discharge, salivation, tremors, convulsions and tachycardia
- gross necropsy of animals that died ([1]; rabbit, 300 mg/kg oral): reddish discoloration in the lungs, multiple watery cyst on the right median lobe of the liver and focal white patches
- mortality ([1]; rabbit, 300 mg/kg oral, six animals per group, within four hours after dosing): four animals in this group died
- mean body weight ([1]; rabbit, 50, 150, 300 mg/kg oral, 14-day study period): consistent increase
- mean food intake ([1]; rabbit, 50, 150, 300 mg/kg oral, study period): normal
- food intake ([1]; rabbit, treatment groups 50-300 mg/kg, first observations following treatment): initial decrease in food intake
- LD50 at 14 days [2]: 324 mg/kg
- MTD at 14 days [2]: 150 to 300 mg/kg
- CNS stimulation [3, 11]: CNS stimulation, including feelings of restlessness and jitteriness
- appetite [3, 11]: decreased appetite
- heart rate [3, 11]: increased heart rate
- mood [3, 11]: improved mood
- physical performance during exercise and strength training [3, 11]: improved physical performance
- vasopressor effects ([7]; acute oral administration in humans): vasopressor effects similar to the effects of caffeine
- glycerol and free fatty acid concentration (markers of lipolysis) ([7]; humans, following exercise): increased levels of these markers of lipolysis
- blood pressure ([7]; humans): increase blood pressure to a modest degree
- heart rate and circulating catecholamines (norepinephrine and epinephrine) ([7]; humans): no effect on heart rate or on circulating catecholamines
- norepinephrine levels ([7]; humans): no effect on norepinephrine levels
- vasopressor activity [4]: exhibit vasopressor or vasoconstriction activity
- additional clinical signs ([5]; rat, 250 mg/kg oral): tremors
- food intake ([5]; rat, 250 mg/kg oral): decreased food intake on Day 3
- necropsy analysis ([5]; rat, 250 mg/kg oral, preterminal mortality): hyperemia in the stomach glandular mucosa; congestion of lungs, liver and adrenals; the presence of blood clots in the cranial cavity; and ballooning of the small intestine with reddish yellow fluid
- mortality ([5]; rat, 250 mg/kg oral, ten animals per group, within 26 hours of dosing): One preterminal mortality
- mean body weight ([5]; rat, 50, 125, 250 mg/kg oral, all treatment groups): consistent increase
- mean food intake ([5]; rat, 50 and 125 mg/kg oral): normal
- mortality ([5]; rat, 50 and 125 mg/kg oral (lower dose groups)): no mortalities
- clinical signs ([5]; rat, all treatment groups 50, 125, 250 mg/kg oral): piloerection, tail elevation, nasal discharge and hyperactivity
- LD50 at 14 days [6]: 482 mg/kg
- MTD at 14 days [6]: 125 to 250 mg/kg

SMILES: CC(C)CC[C@H](C)N [(S)-1,4-DMPA, (S)-1,4-dimethylpentylamine]
- alertness and focus in comparison to (R)-1,4-DMPA [3, 12]: lessened alertness and focus
- heart rate and restlessness in comparison to (R)-1,4-DMPA [3, 12]: increased heart rate and restlessness
